Test results as given in patent publication US8901118B2, “Compounds and methods for kinase modulation, and indications therefor” (Plexxikon Inc., priority 2010, dated 2014).

Columns and labels:
Fms kinase = Fms kinase (Homo sapiens, UniProt P07333); experiment: Fms kinase biochemical activity assay (AlphaScreen, biotin-(E4Y)10 phosphorylation); settings: 100 μM ATP; read-out: Biochemical Inhibition IC50 Fms
Procedure: In one assay the biochemical activity IC50 values are determined with respect to inhibition of Fms kinase activity, where inhibition of phosphorylation of a peptide substrate is measured as a function of compound concentration. Compounds to be tested, dissolved in DMSO (1 μL), are added to a white 384-well plate (Costar #3705). Working stocks of Fms kinase (Invitrogen #PV3249), biotin-(E4Y)10 substrate (Upstate Biotech, Cat#12-440), and ATP (Sigma, Cat#A-3377) are prepared in 25 mM Hepes pH 7.5, 0.5 mM MgCl2, 2 mM MnCl2, 2 mM DTT, 0.01% BSA, and 0.01% Tween-20. All components are added to the 384-well plate for a final concentration of 1 ng/well Fms, 30 nM biotin-(E4Y)10 (Upstate Biotechnology) and 100 μM ATP in a volume of 20 μL. Each sample is at 5% DMSO. The plate is then incubated for 20 minutes at 30° C. Just before use, working stocks of donor and acceptor beads from the AlphaScreen PY20 Detection Kit (PerkinElmer, Cat#676601M) are prepared in 25 mM Hepes pH 7.5, pH 7.4, 100 mM EDTA, 0.01% BSA. To stop the reaction, the plate is uncovered in the dark and 5 μL of Donor Beads solution (Streptavidin beads) is added to each well. The plate is incubated at room temperature for 20 minutes. Five microliters of Acceptor Beads solution (PY20 coated beads) are then added to each well. The final concentration of each bead is 10 μg/mL. The plates are incubated at room temperature for 60 minutes. Fluorescence signal is recorded on the Envision reader. Phosphorylated substrate results in binding of the PY20 antibody and association of the donor and acceptor beads such that signal correlates with kinase activity. The signal vs. compound concentration is used to determine the IC50.

CYP2C9 = CYP2C9 (Homo sapiens, UniProt P11712); experiment: CYP2C9 inhibition (fluorescent substrate MFC); format: in vitro ADME; settings: read-out: Cyp IC50 2C9
CYP2C9, sequence (P11712 whole entry): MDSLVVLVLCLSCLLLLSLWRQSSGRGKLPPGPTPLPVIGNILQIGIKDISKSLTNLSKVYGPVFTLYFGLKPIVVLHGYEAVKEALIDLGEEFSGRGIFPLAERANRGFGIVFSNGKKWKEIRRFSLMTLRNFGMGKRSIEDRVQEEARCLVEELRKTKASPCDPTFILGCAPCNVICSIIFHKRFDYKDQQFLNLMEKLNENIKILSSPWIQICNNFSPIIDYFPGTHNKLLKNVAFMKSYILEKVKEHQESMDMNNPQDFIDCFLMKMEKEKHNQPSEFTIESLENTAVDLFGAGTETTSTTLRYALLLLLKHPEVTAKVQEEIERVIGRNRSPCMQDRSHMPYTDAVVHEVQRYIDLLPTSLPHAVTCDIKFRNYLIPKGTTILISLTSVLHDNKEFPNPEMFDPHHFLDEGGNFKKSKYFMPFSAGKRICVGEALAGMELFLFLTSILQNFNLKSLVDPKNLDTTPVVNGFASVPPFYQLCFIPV
Procedure: (§1) CYP (Cytochrome P450) enzymes are the major drug metabolizing enzymes present in the liver. The inhibition of CYP enzyme activity (IC50) for each of CYP1A2, CYP2C19, CYP2C9, CYP2D6, CYP3A4(BFC) and CYP3A4(BQ) is determined for compounds, where inhibition of metabolism of a known substrate leads to a decrease in the fluorescence of the metabolized product. The fluorescence of the product is monitored as a function of compound concentration. Compounds are dissolved in DMSO to a concentration of 100 mM. These are diluted 1 μL into 82 μL of acetonitrile. An 11 μL aliquot of this solution is then added to 204 μL of cofactor mix (1.3% NADPH Regeneration system Solution A, 1.04% NADPH Regeneration system Solution B from BD Biosciences, 5% acetonitrile and 0.05% DMSO). These are then serially diluted 1:1 (160 μL to 160 μL co-factor mix) for a total of 10 points. A 10 μL aliquot of this final mixture is dispensed into 384 well assay plates and incubated for 10 minutes at 37° C. […] Assay plates are incubated at 37° C. (CYP1A2-15 min; CYP2C9-45 min; CYP2C19, 2D6 and 3A4-30 min) and read in a Tecan Safire 2 plate reader (CYP1A2, 2C19 and 3A4 409 ex/460 em; CYP2C9 and 2D6 409 ex/530 em). The signal versus compound concentration is used to determine the IC50. The enzymes and substrates for this assay are obtained from BD Biosciences.

CYP2C19 = CYP2C19 (Homo sapiens, UniProt P33261); experiment: CYP2C19 inhibition (fluorescent substrate CEC); format: in vitro ADME; settings: read-out: Cyp IC50 2C19
CYP2C19, sequence (P33261 whole entry): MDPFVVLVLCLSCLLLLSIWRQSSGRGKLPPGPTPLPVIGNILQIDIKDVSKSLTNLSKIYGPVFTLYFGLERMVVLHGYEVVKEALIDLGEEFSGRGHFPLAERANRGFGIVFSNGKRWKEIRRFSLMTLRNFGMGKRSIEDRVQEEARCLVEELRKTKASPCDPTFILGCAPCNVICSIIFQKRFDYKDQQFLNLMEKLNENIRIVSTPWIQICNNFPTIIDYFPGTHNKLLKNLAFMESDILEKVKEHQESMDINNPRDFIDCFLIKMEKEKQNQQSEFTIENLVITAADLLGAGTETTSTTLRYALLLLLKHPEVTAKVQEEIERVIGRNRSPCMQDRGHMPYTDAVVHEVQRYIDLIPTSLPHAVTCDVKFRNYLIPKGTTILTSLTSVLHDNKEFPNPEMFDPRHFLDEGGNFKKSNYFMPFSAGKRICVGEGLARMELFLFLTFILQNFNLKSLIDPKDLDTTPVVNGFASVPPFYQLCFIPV
Procedure: as §1

c-Kit kinase = c-Kit kinase (Homo sapiens, UniProt P10721); experiment: c-Kit kinase biochemical activity assay (AlphaScreen, biotin-(E4Y)10 phosphorylation); settings: 100 μM ATP; read-out: Biochemical Inhibition IC50 Kit
c-Kit kinase, sequence (P10721 26-976): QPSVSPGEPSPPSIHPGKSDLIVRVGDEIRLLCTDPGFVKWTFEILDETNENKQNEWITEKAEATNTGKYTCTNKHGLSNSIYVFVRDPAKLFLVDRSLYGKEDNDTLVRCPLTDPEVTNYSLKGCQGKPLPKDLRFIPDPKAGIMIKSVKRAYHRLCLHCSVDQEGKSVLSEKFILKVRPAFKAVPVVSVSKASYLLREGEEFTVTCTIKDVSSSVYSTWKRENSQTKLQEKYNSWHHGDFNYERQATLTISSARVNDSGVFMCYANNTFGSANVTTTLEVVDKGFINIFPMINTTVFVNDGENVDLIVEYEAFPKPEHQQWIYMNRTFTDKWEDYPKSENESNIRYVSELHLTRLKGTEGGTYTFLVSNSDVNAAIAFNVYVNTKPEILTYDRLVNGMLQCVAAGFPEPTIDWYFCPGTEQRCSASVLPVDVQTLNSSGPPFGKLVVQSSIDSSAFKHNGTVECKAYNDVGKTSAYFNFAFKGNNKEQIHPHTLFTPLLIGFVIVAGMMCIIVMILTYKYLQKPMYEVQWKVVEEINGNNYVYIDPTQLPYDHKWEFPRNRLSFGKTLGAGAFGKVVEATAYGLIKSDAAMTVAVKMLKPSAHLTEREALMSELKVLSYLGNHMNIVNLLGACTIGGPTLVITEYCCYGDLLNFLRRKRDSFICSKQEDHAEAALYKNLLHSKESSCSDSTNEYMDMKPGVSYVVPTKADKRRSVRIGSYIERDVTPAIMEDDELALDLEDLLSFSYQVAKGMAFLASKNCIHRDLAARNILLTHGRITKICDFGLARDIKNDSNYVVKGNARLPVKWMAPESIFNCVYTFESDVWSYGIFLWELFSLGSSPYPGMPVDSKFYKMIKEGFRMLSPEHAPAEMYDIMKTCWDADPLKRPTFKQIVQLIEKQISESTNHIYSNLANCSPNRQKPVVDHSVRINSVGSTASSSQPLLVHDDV
Procedure: Assays for biochemical and cell based activity are known in the art, for example, U.S. Patent Application Publication Number 2009/0076046, the disclosure of which is hereby incorporated by reference as it relates to such assays. For example, in one assay the biochemical activity IC50 values are determined with respect to inhibition of c-Kit kinase activity, where inhibition of phosphorylation of a peptide substrate is measured as a function of compound concentration. Compounds to be tested are dissolved in DMSO to a concentration of 20 mM. These are diluted 30 μL into 120 μL of DMSO (4 mM) and 1 μL is added to an assay plate. These are then serially diluted […] (50 μL to 100 μL DMSO) for a total of 8 points. Plates are prepared such that each kinase reaction is 20 μL in 1× kinase buffer (25 mM HEPES, pH 7.5, 2 mM MgCl2, 2 mM MnCl2, 0.01% Tween-20, 1 mM DTT, 0.01% BSA), 5% DMSO and 100 μM ATP. Substrate is 30 nM biotin-(E4Y) 10 (Millipore). C-kit kinase (obtained from Millipore (#14-559) or is prepared as described in U.S. Patent Application Publication Number 2009/0076046, the disclosure of which is hereby incorporated by reference as it relates to this assay) is at 0.75 ng per sample. After incubation of the kinase reaction for 1 hour at room temperature, 5 μL of donor beads (Streptavidin coated beads (Perkin Elmer Life Science) final concentration 10 μg/mL) in stop buffer (25 mM Hepes pH 7.5, 100 mM EDTA, 0.01% BSA) is added, the sample is mixed and incubated for 20 minutes at room temperature before adding 5 μL of acceptor beads (PY20 coated beads (Perkin Elmer Life Science) final concentration 10 μg/mL) in stop buffer. The samples are incubated for 60 minutes at room temperature and the signal per well is read on Envision reader. Phosphorylated substrate results in binding of the PY20 antibody and association of the donor and acceptor beads such that signal correlates with kinase activity. The signal vs. compound concentration is used to determine the IC50.

Fms kinase, sequence (P07333 20-972): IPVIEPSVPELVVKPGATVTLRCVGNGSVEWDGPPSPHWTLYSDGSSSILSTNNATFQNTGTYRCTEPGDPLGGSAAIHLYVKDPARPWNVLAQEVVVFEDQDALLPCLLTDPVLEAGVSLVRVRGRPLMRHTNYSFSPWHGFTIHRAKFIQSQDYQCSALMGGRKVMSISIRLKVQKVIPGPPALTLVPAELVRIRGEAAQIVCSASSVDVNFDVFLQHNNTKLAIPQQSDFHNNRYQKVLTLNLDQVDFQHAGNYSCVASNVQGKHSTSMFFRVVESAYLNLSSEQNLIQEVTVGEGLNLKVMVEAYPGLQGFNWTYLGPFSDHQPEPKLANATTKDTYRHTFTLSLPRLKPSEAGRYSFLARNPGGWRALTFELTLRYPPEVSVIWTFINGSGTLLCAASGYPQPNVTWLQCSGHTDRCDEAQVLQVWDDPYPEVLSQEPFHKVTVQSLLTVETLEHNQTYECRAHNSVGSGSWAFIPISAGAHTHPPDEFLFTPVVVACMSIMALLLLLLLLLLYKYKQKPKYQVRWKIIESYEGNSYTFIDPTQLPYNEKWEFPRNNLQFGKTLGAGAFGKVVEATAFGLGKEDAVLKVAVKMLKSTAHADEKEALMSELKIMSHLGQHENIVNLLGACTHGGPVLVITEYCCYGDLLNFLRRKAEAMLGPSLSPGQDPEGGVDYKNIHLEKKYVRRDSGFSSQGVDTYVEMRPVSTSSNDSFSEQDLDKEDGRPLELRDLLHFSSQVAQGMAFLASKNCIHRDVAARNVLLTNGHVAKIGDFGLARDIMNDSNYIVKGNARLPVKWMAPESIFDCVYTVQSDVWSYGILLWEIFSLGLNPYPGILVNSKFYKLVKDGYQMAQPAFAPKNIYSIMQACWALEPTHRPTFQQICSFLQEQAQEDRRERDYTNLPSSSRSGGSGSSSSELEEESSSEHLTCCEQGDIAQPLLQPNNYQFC

SMILES | IC50 (Fms kinase) [µM] | IC50 (CYP2C9) [µM] | IC50 (CYP2C19) [µM] | IC50 (c-Kit kinase) [µM]
CNc1ncnc2[nH]cc(C(=O)c3ccc(Nc4cncc(OC)c4)nc3F)c12 [Compound P-4108, [2-fluoro-6-[(5-methoxy-3-pyridyl)amino]-3-pyridyl]-[4-(methylamino)-7H-pyrrolo[2,3-d]pyrimidin-5-yl]methanone] | < 0.1 | < 5 | < 5 | < 1
CC(C)Nc1ncnc2[nH]cc(C(=O)c3ccc(NC4CCCCC4)nc3Cl)c12 [Compound P-4109, [2-chloro-6-(cyclohexylamino)-3-pyridyl]-[4-(isopropylamino)-7H-pyrrolo[2,3-d]pyrimidin-5-yl]methanone] | < 0.1 | 5 to 10 | 5 to 10 | < 1
CNc1ncnc2[nH]cc(C(=O)c3ccc(NC4CCC(F)(F)CC4)nc3F)c12 [Compound P-4063, [6-[(4,4-difluorocyclohexyl)amino]-2-fluoro-3-pyridyl]-[4-(methylamino)-7H-pyrrolo[2,3-d]pyrimidin-5-yl]methanone] | < 0.01 | > 10 | > 10 | < 1
COc1ccc(Nc2ccc(C(=O)c3c[nH]c4ncnc(N5CCOCC5)c34)c(F)n2)cn1 [Compound P-4070, [2-fluoro-6-[(6-methoxy-3-pyridyl)amino]-3-pyridyl]-(4-morpholino-7H-pyrrolo[2,3-d]pyrimidin-5-yl)methanone] | > 1 | > 10 | > 10 | > 1
CCC(CC)Nc1ncnc2[nH]cc(C(=O)c3ccc(Nc4ccc(OC)nc4)nc3F)c12 [Compound P-4077, [4-(1-ethylpropylamino)-7H-pyrrolo[2,3-d]pyrimidin-5-yl]-[2-fluoro-6-[(6-methoxy-3-pyridyl)amino]-3-pyridyl]methanone] | < 0.1 | > 10 | 5 to 10 | < 1
CCNc1ncnc2[nH]cc(C(=O)c3ccc(Nc4ccc(OC)nc4)nc3F)c12 [Compound P-4081, [4-(ethylamino)-7H-pyrrolo[2,3-d]pyrimidin-5-yl]-[2-fluoro-6-[(6-methoxy-3-pyridyl)amino]-3-pyridyl]methanone] | < 0.01 | > 10 | > 10 | < 0.1
Fc1nc(NC2CCC(F)(F)CC2)ccc1Cc1c[nH]c2ncc(Cl)cc12 [Compound P-3013, [5-(5-Chloro-1H-pyrrolo[2,3-b]pyridin-3-ylmethyl)-6-fluoro-pyridin-2-yl]-(4,4-difluoro-cyclohexyl)-amine] | < 0.01 | > 10 | < 5 | < 1
O=C(c1ccc(NC2CCC(F)(F)CC2)nc1F)c1c[nH]c2ncnc(NCC(F)(F)F)c12 [Compound P-4061, [6-[(4,4-difluorocyclohexyl)amino]-2-fluoro-3-pyridyl]-[4-(2,2,2-trifluoroethylamino)-7H-pyrrolo[2,3-d]pyrimidin-5-yl]methanone] | < 0.1 | > 10 | > 10 | > 1
CCCCNc1ncnc2[nH]cc(C(=O)c3ccc(Nc4ccc(CC)nc4)nc3F)c12 [Compound P-4100, [4-(butylamino)-7H-pyrrolo[2,3-d]pyrimidin-5-yl]-[6-[(6-ethyl-3-pyridyl)amino]-2-fluoro-3-pyridyl]methanone] | < 0.1 | < 5 | < 5 | < 0.1
CCCCNc1ncnc2[nH]cc(C(=O)c3ccc(Nc4ccc(OC)nc4)nc3F)c12 [Compound P-4080, [4-(butylamino)-7H-pyrrolo[2,3-d]pyrimidin-5-yl]-[2-fluoro-6-[(6-methoxy-3-pyridyl)amino]-3-pyridyl]methanone] | < 0.01 | > 10 | > 10 | < 1
COc1ccc(Nc2ccc(C(=O)c3c[nH]c4ncnc(NC(C)C)c34)c(F)n2)cn1 [Compound P-4066, [2-fluoro-6-[(6-methoxy-3-pyridyl)amino]-3-pyridyl]-[4-(isopropylamino)-7H-pyrrolo[2,3-d]pyrimidin-5-yl]methanone] | < 0.01 | > 10 | > 10 | < 0.1
CNc1ncnc2[nH]cc(C(=O)c3ccc(NC4CCC(F)(F)CC4)nc3)c12 [Compound P-4089, [6-[(4,4-difluorocyclohexyl)amino]-3-pyridyl]-[4-(methylamino)-7H-pyrrolo[2,3-d]pyrimidin-5-yl]methanone] | < 0.1 | > 10 | > 10 | < 1
Clc1ccc(Nc2ncc(Cc3c[nH]c4ncc(Cl)cc34)cn2)cc1 [Compound P-3011, (4-Chloro-phenyl)-[5-(5-chloro-1H-pyrrolo[2,3-b]pyridin-3-ylmethyl)-pyrimidin-2-yl]-amine] | < 0.01 | > 10 | > 10 | < 0.01
CCc1ccc(Nc2ccc(C(=O)c3c[nH]c4ncnc(NCC(C)C)c34)c(F)n2)cn1 [Compound P-4121, [6-[(6-ethyl-3-pyridyl)amino]-2-fluoro-3-pyridyl]-[4-(isobutylamino)-7H-pyrrolo[2,3-d]pyrimidin-5-yl]methanone] | < 0.1 | > 10 | 5 to 10 | < 0.01
Cc1ccc(Nc2ccc(C(=O)c3c[nH]c4ncnc(NCC5CC5)c34)c(F)n2)cn1 [Compound P-4113, [4-(cyclopropylmethylamino)-7H-pyrrolo[2,3-d]pyrimidin-5-yl]-[2-fluoro-6-[(6-methyl-3-pyridyl)amino]-3-pyridyl]methanone] | < 0.01 | > 10 | > 10 | < 0.1
CC(C)Nc1ncnc2[nH]cc(C(=O)c3ccc(NC4CCCCC4)nc3F)c12 [Compound P-4101, [6-(cyclohexylamino)-2-fluoro-3-pyridyl]-[4-(isopropylamino)-7H-pyrrolo[2,3-d]pyrimidin-5-yl]methanone] | < 0.1 | 5 to 10 | 5 to 10 | < 1
